We go through 18 compounds from US20240124417A1, “COMPOUNDS USEFUL AS IMMUNOMODULATORS” (Bristol-Myers Squibb Company, priority 2019, published 2024).

By IC50 is commonly meant the point on the concentration scale where inhibition reaches its midpoint.

Each structure is given as a SMILES string.

This test addresses T1, PD-1/PD-L1 (Homo sapiens, UniProt Q9NZQ7).
T1 construct: TVMV protease site linker (C); made in house; host or cells: HEK293T cells
Description: PD-1/PD-L1 Homogenous Time-Resolved Fluorescence (HTRF) binding assay. The conditions noted are these: PD-L1-His 10 nM, PD-1-Ig 20 nM. From the text: The ability of the compounds of the invention to bind to PD-L1 was investigated using a PD-1/PD-L1 Homogenous Time-Resolved Fluorescence (HTRF) binding assay.
Homogenous Time-Resolved Fluorescence (HTRF) binding assay.
The interaction of PD-1 and PD-L1 can be assessed using soluble, purified preparations of the extracellular domains of the two proteins. The PD-1 and PD-L1 protein extracellular domains were expressed as fusion proteins with detection tags, for PD-1, the tag was the Fc portion of Immunoglobulin (PD-1-Ig) and for PD-L1 it was the 6 histidine motif (PD-L1-His). All binding studies were performed in an HTRF assay buffer consisting of dPBS supplemented with 0.1% […] bovine serum albumin and 0.05% (v/v) Tween-20. For the h/PD-L1-His binding assay, inhibitors were pre-incubated with PD-L1-His (10 nM final) for 15 m in 4 μl of assay buffer, followed by addition of PD-1-Ig (20 nM final) in 1 μl of assay buffer and further incubation for 15 m. HTRF detection was achieved using europium crypate-labeled anti-Ig (1 nM final) and allophycocyanin (APC) labeled anti-His (20 nM final). Antibodies were diluted in HTRF detection buffer and 5 μl was dispensed on top of the binding reaction. […] Additional binding assays were established between the human proteins PD-1-Ig/PD-L2-His (20 & 5 nM, respectively) and CD80-His/PD-L1-Ig (100 & 10 nM, respectively). […]

T1 sequence (Q9NZQ7 18-239): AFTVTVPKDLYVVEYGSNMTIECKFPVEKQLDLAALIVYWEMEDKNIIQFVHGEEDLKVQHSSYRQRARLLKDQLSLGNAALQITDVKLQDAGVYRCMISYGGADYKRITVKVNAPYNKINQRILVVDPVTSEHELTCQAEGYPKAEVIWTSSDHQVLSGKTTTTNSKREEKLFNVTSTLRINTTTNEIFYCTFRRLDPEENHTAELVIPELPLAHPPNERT

`CC(=O)NC1CCN(CCCOc2cccc(-c3cccc(COc4cc(OCc5cncc(C#N)c5)c(CN(C)CCc5nn[nH]n5)cc4Cl)c3C)c2C)CC1` [Example 1037, N-(1-(3-((3′-((4-(((2-(2H-Tetrazol-5-yl)ethyl)(methyl)amino)methyl)-2-chloro-5-((5-cyanopyridin-3-yl)methoxy)phenoxy)methyl)-2,2′-dimethyl-[1,1′-biphenyl]-3-yl)oxy)-propyl)piperidin-4-yl)acetamide] displayed an IC50 of 2.8 nM.
Compound `CC(=O)NC1CCN(CCCOc2cccc(-c3cccc(COc4cc(OCc5cncc(C#N)c5)c(CN5CCCC(c6ncc[nH]6)C5)cc4Cl)c3C)c2C)CC1` (stereo not drawn) [Example 1038, N-(1-(3-((3′-((4-((3-(1H-Imidazol-2-yl)piperidin-1-yl)methyl)-2-chloro-5-((5-cyano-pyridin-3-yl)methoxy)phenoxy)methyl)-2,2′-dimethyl-[1,1′-biphenyl]-3-yl)oxy)propyl)-piperidin-4-yl)acetamide] returned an IC50 of 3.7 nM.
As for `CC(=O)NC1CCN(CCCOc2cccc(-c3cccc(COc4cc(OCc5cncc(C#N)c5)c(CN5CCCC(c6nnc[nH]6)C5)cc4Cl)c3C)c2C)CC1` (stereo not drawn) [Example 1039, N-(1-(3-((3′-((4-((3-(4H-1,2,4-Triazol-3-yl)piperidin-1-yl)methyl)-2-chloro-5-((5-cyano-pyridin-3-yl)methoxy)phenoxy)methyl)-2,2′-dimethyl-[1,1′-biphenyl]-3-yl)oxy)propyl)-piperidin-4-yl)acetamide], the figure is 2.7 nM; as for `CC(=O)NC1CCN(CCCOc2cccc(-c3cccc(COc4cc(OCc5cncc(C#N)c5)c(CN(C)C(C)c5nnn[nH]5)cc4Cl)c3C)c2C)CC1` (stereo not drawn) [Example 1040, N-(1-(3-((3′-((4-(((1-(1H-Tetrazol-5-yl)ethyl)(methyl)amino)methyl)-2-chloro-5-((5-cyanopyridin-3-yl)methoxy)phenoxy)methyl)-2,2′-dimethyl-[1,1′-biphenyl]-3-yl)oxy)-propyl)piperidin-4-yl)acetamide], 2.3 nM; as for `CC(=O)NC1CCN(CCCOc2cccc(-c3cccc(COc4cc(OCc5cncc(C#N)c5)c(CN5CCCC(c6nnn[nH]6)C5)cc4Cl)c3C)c2C)CC1` (stereo not drawn) [Example 1041, N-(1-(3-((3′-((4-((3-(1H-Tetrazol-5-yl)piperidin-1-yl)methyl)-2-chloro-5-((5-cyano-pyridin-3-yl)methoxy)phenoxy)methyl)-2,2′-dimethyl-[1,1′-biphenyl]-3-yl)oxy)propyl)-piperidin-4-yl)acetamide], 0.5 nM.
Next, `CC(=O)NC1CCN(CCCOc2cccc(-c3cccc(COc4cc(OCc5cncc(C#N)c5)c(CN5CCC(c6nnn[nH]6)C5)cc4Cl)c3C)c2C)CC1` (stereo not drawn) [Example 1042, N-(1-(3-((3′-((4-((3-(1H-Tetrazol-5-yl)pyrrolidin-1-yl)methyl)-2-chloro-5-((5-cyano-pyridin-3-yl)methoxy)phenoxy)methyl)-2,2′-dimethyl-[1,1′-biphenyl]-3-yl)oxy)propyl)-piperidin-4-yl)acetamide]: 0.2 nM; `CC(=O)NC1CCN(CCCOc2cccc(-c3cccc(COc4cc(OCc5cncc(C#N)c5)c(CNC(C)c5nnn[nH]5)cc4Cl)c3C)c2C)CC1` (stereo not drawn) [Example 1043, N-(1-(3-((3′-((4-(((1-(1H-Tetrazol-5-yl)ethyl)amino)methyl)-2-chloro-5-((5-cyanopyridin-3-yl)methoxy)phenoxy)methyl)-2,2′-dimethyl-[1,1′-biphenyl]-3-yl)oxy)propyl)piperidin-4-yl)acetamide]: 3.1 nM.
Regarding `CC(=O)NC1CCN(CCCOc2cccc(-c3cccc(COc4cc(OCc5cncc(C#N)c5)c(CN(C)Cc5nnn[nH]5)cc4Cl)c3C)c2C)CC1` [Example 1044, N-(1-(3-((3′-((4-((((1H-Tetrazol-5-yl)methyl)(methyl)amino)methyl)-2-chloro-5-((5-cyanopyridin-3-yl)methoxy)phenoxy)methyl)-2,2′-dimethyl-[1,1′-biphenyl]-3-yl)oxy)-propyl)piperidin-4-yl)acetamide], the IC50 was determined as 0.5 nM.
As for `CC(=O)NC1CCN(CCCOc2cccc(-c3cccc(COc4cc(OCc5cncc(C#N)c5)c(CN5CCCCC5c5ncc[nH]5)cc4Cl)c3C)c2C)CC1` (stereo not drawn) [Example 1045, N-(1-(3-((3′-((4-((2-(1H-Imidazol-2-yl)piperidin-1-yl)methyl)-2-chloro-5-((5-cyano-pyridin-3-yl)methoxy)phenoxy)methyl)-2,2′-dimethyl-[1,1′-biphenyl]-3-yl)oxy)propyl)-piperidin-4-yl)acetamide], the figure is 3.8 nM.
Consider `CC(=O)NC1CCN(CCCOc2cccc(-c3cccc(COc4cc(OCc5cncc(C#N)c5)c(CNCc5nnn[nH]5)cc4Cl)c3C)c2C)CC1` [Example 1046, N-(1-(3-((3′-((4-((((1H-Tetrazol-5-yl)methyl)amino)methyl)-2-chloro-5-((5-cyanopyridin-3-yl)methoxy)phenoxy)methyl)-2,2′-dimethyl-[1,1′-biphenyl]-3-yl)oxy)propyl)piperidin-4-yl)acetamide], for which the IC50 came to 1.9 nM.
Next, `CC(=O)NC1CCN(CCCOc2cccc(-c3cccc(COc4cc(OCc5cncc(C#N)c5)c(CN(C)CC(C)c5nn[nH]n5)cc4Cl)c3C)c2C)CC1` (stereo not drawn) [Example 1047, N-(1-(3-((3′-((4-(((2-(2H-Tetrazol-5-yl)propyl)(methyl)amino)methyl)-2-chloro-5-((5-cyanopyridin-3-yl)methoxy)phenoxy)methyl)-2,2′-dimethyl-[1,1′-biphenyl]-3-yl)oxy)-propyl)piperidin-4-yl)acetamide]: 2.4 nM.
Next, `CC(=O)NC1CCN(CCCOc2cccc(-c3cccc(COc4cc(OCc5cncc(C#N)c5)c(CN5CCCCC5c5nnn[nH]5)cc4Cl)c3C)c2C)CC1` (stereo not drawn) [Example 1048, N-(1-(3-((3′-((4-((2-(1H-Tetrazol-5-yl)piperidin-1-yl)methyl)-2-chloro-5-((5-cyano-pyridin-3-yl)methoxy)phenoxy)methyl)-2,2′-dimethyl-[1,1′-biphenyl]-3-yl)oxy)propyl)-piperidin-4-yl)acetamide]: 0.5 nM; `CC(=O)NC1CCN(CCCOc2cccc(-c3cccc(COc4cc(OCc5cncc(C#N)c5)c(CNCCc5nnnn5C)cc4Cl)c3C)c2C)CC1` [Example 1049, N-(1-(3-((3′-((2-Chloro-5-((5-cyanopyridin-3-yl)methoxy)-4-(((2-(1-methyl-1H-tetrazol-5-yl)ethyl)amino)methyl)phenoxy)methyl)-2,2′-dimethyl-[1,1′-biphenyl]-3-yl)oxy)-propyl)piperidin-4-yl)acetamide]: 2.5 nM; `CC(=O)NC1CCN(CCCOc2cccc(-c3cccc(COc4cc(OCc5cncc(C#N)c5)c(CNCC(C)c5nnn[nH]5)cc4Cl)c3C)c2C)CC1` (stereo not drawn) [Example 1050, N-(1-(3-((3′-((4-(((2-(1H-Tetrazol-5-yl)propyl)amino)methyl)-2-chloro-5-((5-cyano-pyridin-3-yl)methoxy)phenoxy)methyl)-2,2′-dimethyl-[1,1′-biphenyl]-3-yl)oxy)propyl)-piperidin-4-yl)acetamide]: 0.7 nM.
`CC(=O)NC1CCN(CCCOc2cccc(-c3cccc(COc4cc(OCc5cncc(C#N)c5)c(CN5CCCC5c5nnn[nH]5)cc4Cl)c3C)c2C)CC1` (stereo not drawn) [Example 1051, N-(1-(3-((3′-((4-((2-(1H-Tetrazol-5-yl)pyrrolidin-1-yl)methyl)-2-chloro-5-((5-cyano-pyridin-3-yl)methoxy)phenoxy)methyl)-2,2′-dimethyl-[1,1′-biphenyl]-3-yl)oxy)propyl)-piperidin-4-yl)acetamide] had an IC50 of 2.1 nM.
Next, `CC(=O)NC1CCN(CCCOc2cccc(-c3cccc(COc4cc(OCc5cncc(C#N)c5)c(CN5CCC(c6cnn(C)c6)C5)cc4Cl)c3C)c2C)CC1` (stereo not drawn) [Example 1052, N-(1-(3-((3′-((2-Chloro-5-((5-cyanopyridin-3-yl)methoxy)-4-((3-(1-methyl-1H-pyrazol-4-yl)pyrrolidin-1-yl)methyl)phenoxy)methyl)-2,2′-dimethyl-[1,1′-biphenyl]-3-yl)oxy)-propyl)piperidin-4-yl)acetamide]: 3.4 nM; `CC(=O)NC1CCN(CCCOc2cccc(-c3cccc(COc4cc(OCc5cncc(C#N)c5)c(CN5CCCCC5c5cc[nH]n5)cc4Cl)c3C)c2C)CC1` (stereo not drawn) [Example 1053, N-(1-(3-((3′-((4-((2-(1H-Pyrazol-3-yl)piperidin-1-yl)methyl)-2-chloro-5-((5-cyano-pyridin-3-yl)methoxy)phenoxy)methyl)-2,2′-dimethyl-[1,1′-biphenyl]-3-yl)oxy)propyl)-piperidin-4-yl)acetamide]: 7.6 nM.
`CC(=O)NC1CCN(CCCOc2cccc(-c3cccc(COc4cc(OCc5cncc(C#N)c5)c(CN5CCCCC5c5cnn(C)c5)cc4Cl)c3C)c2C)CC1` (stereo not drawn) [Example 1054, N-(1-(3-((3′-((2-Chloro-5-((5-cyanopyridin-3-yl)methoxy)-4-((2-(1-methyl-1H-pyrazol-4-yl)piperidin-1-yl)methyl)phenoxy)methyl)-2,2′-dimethyl-[1,1′-biphenyl]-3-yl)oxy)-propyl)piperidin-4-yl)acetamide]: the IC50 turned out to be 3 nM.
